Consider four compounds from paper PMC5877509, “Cys Site-Directed Mutagenesis of the Human SLC1A5 (ASCT2) Transporter: Structure/Function Relationships and Crucial Role of Cys467 for Redox Sensing and Glutamine Transport” (International Journal of Molecular Sciences, 2018).

Type in all cases: biochemical
The target of assay [1] is T1, hASCT2 (Homo sapiens, UniProt Q15758).
T1 construct: gene SLC1A5; recombinant hASCT2-His6, purified from P. pastoris, in proteoliposomes
T1 sequence (Q15758 1-541): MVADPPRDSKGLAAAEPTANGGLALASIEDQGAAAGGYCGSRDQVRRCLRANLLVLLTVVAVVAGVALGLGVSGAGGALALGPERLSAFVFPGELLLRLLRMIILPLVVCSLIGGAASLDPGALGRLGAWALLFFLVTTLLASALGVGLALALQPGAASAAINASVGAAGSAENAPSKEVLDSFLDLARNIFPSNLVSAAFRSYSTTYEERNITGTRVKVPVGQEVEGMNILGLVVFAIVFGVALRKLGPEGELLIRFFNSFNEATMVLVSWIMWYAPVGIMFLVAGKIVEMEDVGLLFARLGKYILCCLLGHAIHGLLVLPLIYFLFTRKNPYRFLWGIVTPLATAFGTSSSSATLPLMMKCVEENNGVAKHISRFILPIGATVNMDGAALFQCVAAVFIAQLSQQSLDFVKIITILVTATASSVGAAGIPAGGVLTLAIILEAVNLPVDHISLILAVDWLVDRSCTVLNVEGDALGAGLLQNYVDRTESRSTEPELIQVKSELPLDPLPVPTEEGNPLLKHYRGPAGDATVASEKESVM
Nature of the assay: [3H]Gln transport inhibition in proteoliposomes at […].

In assay [2] the target is T2, hASCT2 (Homo sapiens, UniProt Q15758, C467A).
T2 construct: gene SLC1A5; recombinant hASCT2-His6, purified from P. pastoris, in proteoliposomes
T2 sequence (Q15758 1-541 C467A): T1 sequence (Q15758 1-541) with C467A
The experiment in a line: [3H]Gln transport inhibition in proteoliposomes, dose-response.

Assay [3] addresses T1, hASCT2. The experiment in a line: [3H]Gln transport kinetics (external Km) in proteoliposomes.
The target in assay [4] is T2, hASCT2. The description is as above.
The target of assay [5] is T1, hASCT2. Nature of the assay: [3H]Gln transport inhibition in proteoliposomes at […]. The following applies: read-out: % inhibition at 1 mM.
In assay [6] the target is T1, hASCT2. The experiment in a line: [3H]Gln transport inhibition in proteoliposomes, dose-response.

The IC50 is the concentration at which inhibition is half-maximal. A high value points to weaker potency in that assay. One may read the Km as the substrate concentration at which the rate is half of its maximum. Broadly, the inhibition is the percentage by which the read-out fell short of the control.

Structures are written as SMILES. Substitutions are numbered along the chain they refer to.

In the case of `N[C@@H](CS)C(=O)O` [Cys], the “[3H]Gln transport inhibition in proteoliposomes at 1 mM” value on hASCT2 [1] is “While Cys strongly inhibited the transport; in this case, inhibition occurred by a mechanism not involving S-S/SH inter-conversion”. The same compound registered a half-maximal inhibitory concentration (IC50) against hASCT2 [2] of 16.6 ± 1.62 µM.
Take `NC(=O)CC[C@H](N)C(=O)O` [Gln]: the Km at hASCT2 [3] came out at 35 ± 10 µM; at hASCT2 [4], 202 ± 33 µM.
As for `CCN1C(=O)C=CC1=O` [NEM], the inhibition at 1000 µM on hASCT2 [5] was approximately 50%.
At hASCT2 [6], `CS(=O)(=O)SCCS(=O)(=O)O` [MTSES, Sodium (2-sulfonatoethyl)methane thiosulfonate] came in with a half-maximal inhibitory concentration (IC50) of 129 ± 21 µM.
